In patent US20230365577A1, “Photodynamic Therapy and Diagnosis” (RMW CHO Group Limited, priority 2020, published 2023):

What was measured:
[1] = test system: LP9; assay: Phototoxicity, pan-cancer panel; type: cell-based; conditions: light or radiation study; LP9, immortalised mesothelial cells
Method: (§1) To test for phototoxicity, cells incubated with phyllochlorin analogues (0-10 μM in DMSO) had culture media replaced after 24 hours (as above) and were then exposed to a 652 nm laser (Invion) with laser density at 50 mW/cm^2 for 5 mins (total 15 J/cm^2). Following activation, cells were cultured for a further 24 hours. Media was then replaced with fresh media containing AlamarBlue, and % viable cells remaining assessed as above. Controls included cells treated with phyllochlorin analogues but not activated by laser light; cells without phyllochlorin analogue treatment but with laser light; and untreated controls. All measurements were made in quadruplicate.
(§2) The activity of phyllochlorin analogues against multiple cancer cell types was assessed as above, using compounds 3 and 6 as examples.

[2] = test system: MDA-MB-468; assay: Phototoxicity, pan-cancer panel; type: cell-based; conditions: Homo sapiens, light or radiation study; MDA-MB-468, breast adenocarcinoma (triple negative)
Method: as §1, §2

[3] = test system: B16F10; assay: Phototoxicity, pan-cancer panel; type: cell-based; conditions: Mus musculus, B16-F10, light or radiation study; B16F10, melanoma
Method: as §1, §2

[4] = test system: HH; assay: Phototoxicity, pan-cancer panel; type: cell-based; conditions: Homo sapiens, light or radiation study, T cell lymphoma
Method: as §1, §2

[5] = test system: HEK293; assay: Phototoxicity, pan-cancer panel; type: cell-based; conditions: Homo sapiens, light or radiation study; HEK293, embryonic kidney
Method: as §1, §2

[6] = test system: DLD-1; assay: Phototoxicity, pan-cancer panel; type: cell-based; conditions: Homo sapiens, light or radiation study; DLD-1, colorectal adenocarcinoma
Method: as §1, §2

[7] = test system: A549; assay: Phototoxicity, pan-cancer panel; type: cell-based; conditions: Homo sapiens, light or radiation study; A549, lung adenocarcinoma
Method: as §1, §2

[8] = Singlet oxygen (1O2) production rate; type: physicochemical
From the text: The production of singlet oxygen (^1O2), cellular phototoxicity and light-independent cytotoxicity (“dark toxicity”) of a number of phyllochlorin analogues were compared against chlorin e4 disodium and Talaporfin sodium (mono-L-aspartyl chlorin e6), the active ingredient of Laserphyrin™.

[9] = In vivo toxicity in wild type mice; conditions: intravenous or intraperitoneal injection, 0.5 to 5 mg/kg
Method: The potential application of compound 6 as a representative phyllochlorin species was explored in vivo. Wild type mice (Balb/C and C57BL/6) received compound 6 by intravenous or intraperitoneal injection, with doses ranging from 0.5 to 5 mg/kg.

[10] = test system: ID8 murine ovarian cancer cells; assay: Tumour localisation and retention, model 2 (intraperitoneal ID8 metastatic disease); type: in vivo, C57BL/6 wild type mice
Method: Model 2 used C57BL/6 wild type mice implanted intraperitoneally with 1×10^6 ID8 murine ovarian cancer cells. Following a 4 week incubation (at which point metastatic peritoneal disease with macroscopically visible tumour deposits was established), mice received compound 6 by either oral gavage (ORAL: 2.5 mg/kg), intravenous injection (IV: 1.0 mg/kg), or intraperitoneal injection (IP: 1.0 mg/kg). Quantitative imaging was performed as above; however, due to the disseminated nature of ovarian cancer, imaging was performed at autopsy, using blue light (400 nm) illumination to visualise red fluorescence associated with compound 6 in tumour deposits.

[11] = test system: 4T1 orthotopically implanted breast tumours; assay: Photodynamic therapy of established breast tumours; type: in vivo, Balb/C wild type mice
Method: Balb/C wild type mice with established 4T1 orthotopically implanted breast tumours were administered compound 6 by IT injection. At 24 hours post-injection (allowing compound 6 to clear from non-tumour tissues), mice were placed in clear perspex cages and illuminated (whole body) under red (660 nm) light for a period of 20 minutes. Light (660 nm) was delivered at an intensity of 100 mW/cm^2 for 20 mins continuously, to achieve a total light dose of 120 J/cm^2. […]

[12] = test system: 4T1 murine breast cancer cells; assay: Tumour localisation and retention, model 1 (subcutaneous 4T1 tumours); type: in vivo, Balb/C wild type mice
Method: Model 1 used Balb/C wild type mice implanted subcutaneously with 10^4×4T1 murine breast cancer cells. When tumours reached a palpable size (˜3-6 mm diameter) mice received compound 6 by either oral gavage (ORAL: 2.5 mg/kg), intravenous injection (IV: 1.0 mg/kg), or intratumoral injection (IT: 1.0 mg/kg in […]). To establish compound 6 localisation, mice were imaged using an IVIS Lumina III In Vivo Imaging System (Perkin Elmer) to detect fluorescence at 660 nm when illuminated under blue (400-460 nm) light.
In a second experiment, the localisation of compound 6 at 24 hours post-administration was compared to that of Talaporfin sodium and 5-Aminolevulinic acid (5-ALA), with all compounds injected at 0.1 mg/kg IT. Fluorescence measurements were made using an IVIS Lumina III instrument (as above).

For C=Cc1c(C)c2cc3nc(c(C)c4cc(C)c(cc5nc(cc1[nH]2)C(C)=C5CC)[nH]4)[C@@H](CCC(=O)N(C)CCCS[C@@H]1O[C@H](CO)[C@@H](O)[C@H](O)[C@H]1O)[C@@H]3C [Compound 6, 3-((7S,8S)-18-ethyl-2,5,8,12,17-pentamethyl-13-vinyl-7H,8H-porphyrin-7-yl)-N-methyl-N-(3-(((2S,3R,4S,5S,6R)-3,4,5-trihydroxy-6-(hydroxymethyl)tetrahydro-2H-pyran-2-yl)thio)propyl)propanamide], the IC90 [1] was 30 nM, the IC90 [2] was 70 nM and the IC90 [3] was 640 nM. The IC90 [4] was 30 nM, the IC90 [5] was 200 nM and the IC90 [6] was 330 nM. For the same molecule, the IC90 [7] was 140 nM, the “Singlet Oxygen Production (slope) 1O2” value [8] was 1700.0 and the Adverse toxic events [9] was “no adverse toxic events observed at any dose”. For the same molecule, the “Localisation into metastatic nodules” value ([10]; IP 1.0 mg/kg) was “rapid and highly selective localisation”, the “Retention in tumour following injection” value ([10]; IV 1.0 mg/kg) was “at least 24 hours” and the “Time of peak tumour distribution” value ([10]; IV 1.0 mg/kg) was 4 h. The Tumour response ([11]; IT injection plus 660 nm light 120 J/cm2 at 24 hours, after 14 days) was “regressed to an undetectable level”, the “Time to endpoint (tumour size ≥100 mm2)” value ([11]; compound alone, no laser) was at most 13 days and the Tumour regrowth ([11]; compound plus laser, after 3 weeks) was “no evidence of regrowth”. For the same molecule, the “Time to regression of established tumours to an undetectable level” value ([11]; compound plus laser, n=2/group) was at most 14 days, the “Tumour localisation at 24 hours post-administration” value ([12]; 0.1 mg/kg IT, primary breast tumours, IVIS fluorescence) was “localised strongly to tumour” and the “Localisation and retention in tumour tissue” value ([12]; IT 1.0 mg/kg, model 1) was “at least 48 hours”. For the same molecule, the “Fluorescence retained in tumour” value ([12]; IV 1.0 mg/kg, model 1) was “at least 4 hours”, the “Time of peak in tumour” value ([12]; IV 1.0 mg/kg, model 1) was 1 h and the “Tumour fluorescence at 24 hours post-injection” value ([12]; IV 1.0 mg/kg, model 1) was “undetectable”. For the same molecule, the “Retention in tumour tissues following administration” value ([12]; in all cases (models 1 and 2, all routes)) was “at least 24 hours”, the “Clearance from healthy tissues” value ([12]; in all cases, dependent on the tissue type) was 4 to 16 h and the “Time of peak levels in tumour” value ([12]; oral gavage 2.5 mg/kg, model 1) was 4 h. The “Time remaining above background in tumour” value ([12]; oral gavage 2.5 mg/kg, model 1) was “at least 24 hours”.
